Experimental findings from patent publication US20220290122A1 (Whitehead Institute for Biomedical Research, priority 2019, published 2022) are described below.

Structures are written as SMILES.

The assay deals with MCART1-null Jurkat cells. In words: Cell proliferation assay with metabolite supplementation (metabolite rescue). It counts as cell-based, human. The following applies: RPMI media; 1 mM pyruvate and 100 μg/ml uridine, 1 mM formate or 0.1 mM/16 μM hypoxanthine/thymidine added at the beginning of the culture period; FIG. 5M.

Experimental: Unless otherwise indicated, Jurkat and K562 cells were cultured in RPMI (Life Technologies) supplemented with 10% Inactivated Fetal Calf Serum (IFS, Sigma and Gemini), 2 mM glutamine, and penicillin/streptomycin. HeLa, HEK-293T, and Ben cells were cultured in DMEM (Life Technologies) supplemented with 10% IFS and penicillin/streptomycin. […] To compare proliferation of cells in glucose to proliferation in galactose, RPMI without glucose (Life Technologies) was supplemented with dialyzed IFS and either 10 mM glucose or galactose. All cell lines were maintained at 37° C. and 5% CO2.
10,000 cells per well were seeded into 96-well plates in triplicate. Cell titer glo reagent (Promega) was added to one plate 1 hour after seeding and luminescence was measured, while a second plate was read-out 4 days after seeding. Number of doublings in 4 days was determined by calculating the loge fold-change in signal between day 0 and 4. For cell counting experiments, 100,000 cells/ml were seeded in a 6-well plate in triplicates and counted immediately after seeding and from then on every 24 hours for 5 sequential days.

In the case of `O=CO` [formate], the “rescue of the proliferation defect of MCART1-null cells by addition of metabolites to the media” value is “not rescued”.
